Test results from publication PMC9783868, “Indoline-5-Sulfonamides: A Role of the Core in Inhibition of Cancer-Related Carbonic Anhydrases, Antiproliferative Activity and Circumventing of Multidrug Resistance” (Pharmaceuticals, 2022).
Read-outs that look alike come from different tables or passages of the source.

Key:
hCA XII = target: T1, hCA XII (Homo sapiens, UniProt O43570); assay: CA inhibition, stopped-flow CO2 hydration assay; format: biochemical; settings: stopped-flow technique; mean from three assays
T1 construct: made in house
T1 sequence (O43570 25-354): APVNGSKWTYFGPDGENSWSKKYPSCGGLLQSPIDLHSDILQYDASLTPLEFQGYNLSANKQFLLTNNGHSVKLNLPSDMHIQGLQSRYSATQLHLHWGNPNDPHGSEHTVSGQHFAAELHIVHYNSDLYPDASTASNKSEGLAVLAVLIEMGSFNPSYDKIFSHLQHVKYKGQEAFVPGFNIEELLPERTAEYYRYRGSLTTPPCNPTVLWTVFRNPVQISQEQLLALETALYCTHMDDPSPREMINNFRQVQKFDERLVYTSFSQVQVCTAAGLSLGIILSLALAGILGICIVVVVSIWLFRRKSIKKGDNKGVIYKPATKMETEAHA
Protocol: (§1) The CO2 hydration activity of the four hCA isoforms was monitored using an Applied Photophysics stopped-flow instrument. Phenol red (at a concentration of 0.2 mM) was used as an indicator, working at the absorbance maximum of 557 nm, with 10 mM HEPES (pH 7.4) as a buffer, and 20 mM NaClO4 (for maintaining constant the ionic strength), following the initial rates of the CA-catalyzed CO2 hydration reaction for a period of 10–100 s. To determine the kinetic parameters by Lineweaver-Burk plots and the inhibition constants, a concentration of CO2 between 1.7 to 17 mM was used. At least six measurements of the original 5–10% reaction were used to assess the initial velocity for each inhibitor. The uncatalyzed rates were determined and detracted from the total observed rates. Stock inhibitor solutions (10–100 mM) were prepared in distilled-deionized water, and dilutions up to 0.1 nM were done with the buffer test. […] The inhibition constants were obtained by non-linear least-squares methods using PRISM 6 and the Cheng-Prusoff equation, as reported earlier, and represent the mean from at least three different determinations.

hCA II = target: T2, hCA II (Homo sapiens, UniProt P00918); assay: CA inhibition, stopped-flow CO2 hydration assay; format: biochemical; settings: stopped-flow technique; mean from three assays
T2 construct: made in house
Protocol: as §1

hCA IX = target: T3, hCA IX (Homo sapiens, UniProt Q16790); assay: CA inhibition, stopped-flow CO2 hydration assay; format: biochemical; settings: stopped-flow technique; mean from three assays
T3 construct: made in house
Protocol: as §1

hCA I = target: T4, hCA I (Homo sapiens, UniProt P00915); assay: CA inhibition, stopped-flow CO2 hydration assay; format: biochemical; settings: stopped-flow technique; mean from three assays
T4 construct: made in house
T4 sequence (P00915 whole entry): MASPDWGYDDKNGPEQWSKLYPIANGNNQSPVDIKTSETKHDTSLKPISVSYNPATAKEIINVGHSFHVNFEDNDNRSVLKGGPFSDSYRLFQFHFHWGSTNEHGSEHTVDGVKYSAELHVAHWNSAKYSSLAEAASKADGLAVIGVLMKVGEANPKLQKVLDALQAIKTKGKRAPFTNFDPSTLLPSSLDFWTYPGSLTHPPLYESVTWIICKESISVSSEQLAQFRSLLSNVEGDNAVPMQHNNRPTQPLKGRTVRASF
Protocol: as §1

MCF7 cells = assay: Antiproliferative activity, MTT test; format: cell-based; settings: Homo sapiens, MTT assay after 72 h exposure
Protocol: A series of synthesized indoline-5-sulfonamides was tested on the MCF7 cancer cell line under normoxia and hypoxia using the MTT test.
The MDR subline K562/4 [77] (kind gift of Dr. Alexander Shtil, Blokhin N.N. National Medical Research Center of Oncology) was obtained by stepwise selection of K562 cells for survival under continuous exposure to Dox. This subline expresses the MDR1 gene and functional P-gp and is characterized by a high resistance index for Dox. […] Cells in the logarithmic phase of growth were used in the experiments. The growth inhibitory activity of compounds was assessed by the MTT test based on the metabolism of the MTT reagent (3-[4,5-dimethylthiazol-2-yl]-2,5-diphenyltetrazolium bromide) (Applichem) in living cells, with modifications as described previously in [49]. Compounds at different concentrations in 100 μL of the appropriate medium were added, and the cells were grown for 72 h. The hypoxia (1% O2) conditions were simulated in Binder multigas incubator, as described in [49]. After incubation with compounds, the medium was removed, the MTT reagent that was dissolved in the medium was added to the final concentration of 0.2 mg/mL to each well, and the incubation was performed for 2 h. Then the cell supernatants were removed, and purple formazan crystals were dissolved in 100% DMSO (350 μL per well). Culture plates were gently shaken, and the absorbance was measured at 571 nm with a reference wavelength of 630 nm on a MultiScan reader (ThermoFisher, Waltham, MA, USA). The viability of the cells was expressed as a percentage of the control. Dose-response curves were analyzed by regression analysis using sigmoid curves (Log(concentration) vs. normalized absorbance).
All results were reported as means ± SD. One-way analysis of variance was used for the analysis of data. Differences were defined as significant at p < 0.05. GraphPad Prism7 (GraphPad Software, San Diego, CA, USA) was used for the determination of the half-maximal inhibitory concentration (IC50) values.

[1] = hypoxia (1% O2), read-out: IC50 against MCF7 Cells, Hypoxia
[2] = normoxia, read-out: IC50 against MCF7 Cells, Normoxia

Ki (hCA XII)	Ki (hCA II)	Ki (hCA IX)	Ki (hCA I)	IC50 (MCF7 cells; [1])	IC50 (MCF7 cells; [2])	melting point	SMILES
198 nM	42.2 nM	2110 nM	60.5 nM	39900 ± 3500 nM	48800 ± 4400 nM	247 to 249 °C	NS(=O)(=O)c1ccc2c(c1)CCN2C(=O)c1ccc([N+](=O)[O-])cc1 [Compound 4p, 1-(4-Nitrobenzoyl)indoline-5-sulfonamide]
> 10000 nM	12.5 nM	2390 nM	64 nM	> 50000 nM	> 50000 nM	> 250 °C	NS(=O)(=O)c1ccc2c(c1)CCN2C(=O)c1ccncc1 [Compound 4q, 1-Isonicotinoylindoline-5-sulfonamide]
> 10000 nM	9.3 nM	173 nM	77.7 nM	> 50000 nM	> 50000 nM	240 to 242 °C	COc1ccc(C(=O)N2CCc3cc(S(N)(=O)=O)ccc32)cc1 [Compound 4k, 1-(4-Methoxybenzoyl)indoline-5-sulfonamide]
> 10000 nM	9.5 nM	2250 nM	88.3 nM	32700 ± 2800 nM	40600 ± 3800 nM	> 250 °C	NS(=O)(=O)c1ccc2c(c1)CCN2C(=O)c1ccc(F)cc1 [Compound 4c, 1-(4-Fluorobenzoyl)indoline-5-sulfonamide]
56 nM	54 nM	> 10000 nM	350 nM	48700 ± 4500 nM	35200 ± 3500 nM	> 250 °C	NS(=O)(=O)c1ccc2c(c1)CCN2C(=O)c1ccc(Cl)c(Cl)c1 [Compound 4h, 1-(3,4-Dichlorobenzoyl)indoline-5-sulfonamide]
110 nM	9.2 nM	> 10000 nM	67.7 nM	> 50000 nM	46200 ± 3600 nM	225 to 227 °C	COc1cccc(C(=O)N2CCc3cc(S(N)(=O)=O)ccc32)c1 [Compound 4j, 1-(3-Methoxybenzoyl)indoline-5-sulfonamide]
258 nM	5.4 nM	> 10000 nM	79 nM	36900 ± 3500 nM	> 50000 nM	> 250 °C	NS(=O)(=O)c1ccc2c(c1)CCN2C(=O)c1ccccc1 [Compound 4a, 1-Benzoylindoline-5-sulfonamide]
57 nM	66.2 nM	> 10000 nM	242 nM	24200 ± 2100 nM	36500 ± 3300 nM	> 250 °C	NS(=O)(=O)c1ccc2c(c1)CCN2C(=O)c1ccc(Cl)cc1 [Compound 4g, 1-(4-Chlorobenzoyl)indoline-5-sulfonamide]
91 nM	9.3 nM	1990 nM	71.4 nM	> 50000 nM	18400 ± 1600 nM	245 to 247 °C	CSc1ccc(C(=O)N2CCc3cc(S(N)(=O)=O)ccc32)cc1 [Compound 4n, 1-(4-(Methylthio)benzoyl)indoline-5-sulfonamide]
93.9 nM	36.1 nM	> 10000 nM	220 nM	43600 ± 4000 nM	> 50000 nM	247 to 249 °C	Cc1cccc(C(=O)N2CCc3cc(S(N)(=O)=O)ccc32)c1 [Compound 4i, 1-(3-Methylbenzoyl)indoline-5-sulfonamide]

The remaining lines, values behind:

SMILES	Ki (hCA XII)	Ki (hCA II)	Ki (hCA IX)	Ki (hCA I)	IC50 (MCF7 cells; [1])	IC50 (MCF7 cells; [2])	melting point
NS(=O)(=O)c1ccc2c(c1)CCN2C(=O)c1cccs1 [Compound 4r, 1-(Thiophene-2-carbonyl)indoline-5-sulfonamide]	147 nM	5 nM	177 nM	42.2 nM	39100 ± 3900 nM	47700 ± 3800 nM	> 250 °C
NS(=O)(=O)c1ccc2c(c1)CCC2NC(=O)c1c(F)c(F)c(F)c(F)c1F (centres unmarked) [Compound 3, reference compound]					> 50000 nM	> 50000 nM	
NS(=O)(=O)c1ccc2c(c1)CCN2C(=O)CC1CCCC1 [Compound 4t, 1-(2-Cyclopentylacetyl)indoline-5-sulfonamide]	> 10000 nM	3.5 nM	177 nM	51.6 nM	36000 ± 3300 nM	38000 ± 3500 nM	184 to 186 °C
NS(=O)(=O)c1ccc2c(c1)CCN2C(=O)c1c(F)cccc1F [Compound 4d, 1-(2,6-Difluorobenzoyl)indoline-5-sulfonamide]	41.3 nM	9.1 nM	1330 nM	268 nM	35900 ± 3400 nM	> 50000 nM	244 to 246 °C
NS(=O)(=O)c1ccc2c(c1)CCN2C(=O)C1CCCC1 [Compound 4s, 1-(Cyclopentanecarbonyl)indoline-5-sulfonamide]	88.1 nM	7.1 nM	133 nM	60.9 nM	> 50000 nM	> 50000 nM	233 to 235 °C
COc1ccc(C(=O)N2CCc3cc(S(N)(=O)=O)ccc32)c(OC)c1 [Compound 4l, 1-(2,4-Dimethoxybenzoyl)indoline-5-sulfonamide]	113 nM	4 nM	203 nM	71.5 nM	> 50000 nM	37000 ± 3000 nM	249 to 251 °C
NS(=O)(=O)c1ccc2c(c1)CCN2Cc1ccccc1 [Compound 10, 1-Benzylindoline-5-sulfonamide]	> 10000 nM	3 nM	> 10000 nM	41 nM	34800 ± 3200 nM	23600 ± 2000 nM	144 to 146 °C
NS(=O)(=O)c1ccc2c(c1)CCN2C(=O)c1ccccc1[N+](=O)[O-] [Compound 4o, 1-(2-Nitrobenzoyl)indoline-5-sulfonamide]	120 nM	4.5 nM	> 10000 nM	83.4 nM	39500 ± 3400 nM	43700 ± 3700 nM	238 to 240 °C
NS(=O)(=O)c1ccc2c(c1)CCN2C(=O)C1CCCCC1 [Compound 4u, 1-(Cyclohexanecarbonyl)indoline-5-sulfonamide]	> 10000 nM	1.8 nM	223 nM	67 nM	39200 ± 3400 nM	37100 ± 3500 nM	> 250 °C
